Laboratory results published in patent publication US20260256792A1, “TREATMENT OF CHRONIC SPONTANEOUS URTICARIA BY ADMINISTERING (R)-2-[3-[4-AMINO-3-(2-FLUORO-4-PHENOXY-PHENYL)PYRAZOLO[3,4-D]PYRIMIDIN-1-YL]PIPERIDINE-1-CARBONYL]-4-METHYL-4-[4-(OXETAN-3-YL)PIPERAZIN-1-YL]PENT-2-ENENITRILE” (priority 2023, published 2026).

System: moderate-to-severe chronic spontaneous urticaria (CSU)
Experiment: Phase 2 CSU study: urticaria activity score over 7 days (UAS7)
Assay type: in vivo, human
Conditions: ITT, 400 mg BID
Source text: The study comprises a 12 week, randomized, double-blind, placebo-controlled, multi-center, dose-ranging efficacy and safety phase, followed by a 40 week open label extension (OLE) phase (see FIG. 1). The study consists of three phases and an optional OLE phase. […] Clinically, CSU is characterized by the spontaneous and recurrent appearance of pruritic hives. The proposed primary endpoints were the UAS7 at Week 12 in EU and EU reference countries and the ISS7 in the US. Regardless of where a participant was from, all assessments were the same. The UAS7 score is a composite score containing both the HSS7 and the ISS7. This allowed a global assessment of the two key components of urticaria: hives and itch. […] The UAS is a validated PRO measure. […] The daily UAS scores range from 0 to 6 point/day. […] Patients were to complete the UAS using the e-diary. […] The following secondary endpoints were to be analyzed using the same approach as for the primary endpoint: • Change from baseline in UAS7 at Week 4 • Change from baseline in UAS7 at Week 12 (for US and US reference countries) • Change from baseline in ISS7 at Week 12 (except US and US reference countries) • Change from baseline in HSS7 at Week 12 The following responder secondary endpoints were to be analyzed using the Cochran-Mantel-Haenszel test adjusted by region: • Proportion of participants with UAS7<6 at Week 12 • Proportion of participants with UAS7=0 at Week 12 Participants who received selected prohibited medications and/or rescue medications were to be considered as non-responders for time points after the medication usage. For other participants, all available data including those collected during the off-treatment period were to be used to determine the responder/non-responder status. Missing data were to be considered as non-responders.

CC(C)(C=C(C#N)C(=O)N1CCC[C@@H](n2nc(-c3ccc(Oc4ccccc4)cc3F)c3c(N)ncnc32)C1)N1CCN(C2COC2)CC1 [rilzabrutinib, (R)-2-[3-[4-amino-3-(2-fluoro-4-phenoxy-phenyl)pyrazolo[3,4-d]pyrimidin-1-yl]piperidine-1-carbonyl]-4-methyl-4-[4-(oxetan-3-yl)piperazin-1-yl]pent-2-enenitrile]
OR for rilzabrutinib vs. placebo, UAS7 ≤6 (Week 4): 2.948 | RRD (%) for rilzabrutinib vs. placebo, UAS7 = 0 (Week 4): 1.3 % | RRD (%) for rilzabrutinib vs. placebo, UAS7 ≤6 (Week 4): 16.7 % | Responder n (%), UAS7 = 0 (Week 4): 3 (7.3) n (%) | Responder n (%), UAS7 ≤6 (Week 4): 13 (31.7) n (%) | Imputed non-responder n (%), UAS7 = 0 (Week 5): 5 (12.2) n (%) | Imputed non-responder n (%), UAS7 ≤6 (Week 5): 5 (12.2) n (%) | Non-responder n (%), UAS7 = 0 (Week 5): 35 (85.4) n (%) | Non-responder n (%), UAS7 ≤6 (Week 5): 28 (68.3) n (%) | OR for rilzabrutinib vs. placebo, UAS7 = 0 (Week 5): 6.024 | OR for rilzabrutinib vs. placebo, UAS7 ≤6 (Week 5): 8.203 | RRD (%) for rilzabrutinib vs. placebo, UAS7 ≤6 (Week 5): 24.3 % | Responder n (%), UAS7 = 0 (Week 5): 6 (14.6) n (%) | Responder n (%), UAS7 ≤6 (Week 5): 13 (31.7) n (%) | Imputed non-responder n (%), UAS7 = 0 (Week 6): 4 (9.8) n (%) | Imputed non-responder n (%), UAS7 ≤6 (Week 6): 4 (9.8) n (%) | Non-responder n (%), UAS7 = 0 (Week 6): 36 (87.8) n (%) | Non-responder n (%), UAS7 ≤6 (Week 6): 29 (70.7) n (%) | OR for rilzabrutinib vs. placebo, UAS7 = 0 (Week 6): 4.821 | OR for rilzabrutinib vs. placebo, UAS7 ≤6 (Week 6): 2.329 | RRD (%) for rilzabrutinib vs. placebo, UAS7 = 0 (Week 6): 8.4 % | RRD (%) for rilzabrutinib vs. placebo, UAS7 ≤6 (Week 6): 13.6 % | Responder n (%), UAS7 = 0 (Week 6): 5 (12.2) n (%) | Responder n (%), UAS7 ≤6 (Week 6): 12 (29.3) n (%) | Imputed non-responder n (%), UAS7 = 0 (Week 7): 4 (9.8) n (%) | Imputed non-responder n (%), UAS7 ≤6 (Week 7): 4 (9.8) n (%) | Non-responder n (%), UAS7 = 0 (Week 7): 35 (85.4) n (%) | Non-responder n (%), UAS7 ≤6 (Week 7): 29 (70.7) n (%) | OR for rilzabrutinib vs. placebo, UAS7 = 0 (Week 7): 6.024 | OR for rilzabrutinib vs. placebo, UAS7 ≤6 (Week 7): 3.425 | RRD (%) for rilzabrutinib vs. placebo, UAS7 ≤6 (Week 7): 17.8 % | Responder n (%), UAS7 = 0 (Week 7): 6 (14.6) n (%) | Responder n (%), UAS7 ≤6 (Week 7): 12 (29.3) n (%) | Imputed non-responder n (%), UAS7 = 0 (Week 8): 5 (12.2) n (%) | Imputed non-responder n (%), UAS7 ≤6 (Week 8): 5 (12.2) n (%) | Non-responder n (%), UAS7 = 0 (Week 8): 33 (80.5) n (%) | Non-responder n (%), UAS7 ≤6 (Week 8): 25 (61.0) n (%) | OR for rilzabrutinib vs. placebo, UAS7 = 0 (Week 8): 4.083 | OR for rilzabrutinib vs. placebo, UAS7 ≤6 (Week 8): 3.297 | RRD (%) for rilzabrutinib vs. placebo, UAS7 = 0 (Week 8): 13.4 % | RRD (%) for rilzabrutinib vs. placebo, UAS7 ≤6 (Week 8): 21.8 % | Responder n (%), UAS7 = 0 (Week 8): 8 (19.5) n (%) | Responder n (%), UAS7 ≤6 (Week 8): 16 (39.0) n (%) | Imputed non-responder n (%), UAS7 = 0 (Week 9): 9 (22.0) n (%) | Imputed non-responder n (%), UAS7 ≤6 (Week 9): 9 (22.0) n (%) | Non-responder n (%), UAS7 = 0 (Week 9): 33 (80.5) n (%) | Non-responder n (%), UAS7 ≤6 (Week 9): 28 (68.3) n (%) | OR for rilzabrutinib vs. placebo, UAS7 = 0 (Week 9): 2.914 | OR for rilzabrutinib vs. placebo, UAS7 ≤6 (Week 9): 3.540 | RRD (%) for rilzabrutinib vs. placebo, UAS7 = 0 (Week 9): 11.3 % | RRD (%) for rilzabrutinib vs. placebo, UAS7 ≤6 (Week 9): 19.4 % | Responder n (%), UAS7 = 0 (Week 9): 8 (19.5) n (%) | Responder n (%), UAS7 ≤6 (Week 9): 13 (31.7) n (%) | Imputed non-responder n (%), UAS7 = 0 (Week 10): 10 (24.4) n (%) | Imputed non-responder n (%), UAS7 ≤6 (Week 10): 10 (24.4) n (%) | Non-responder n (%), UAS7 = 0 (Week 10): 32 (78.0) n (%) | Non-responder n (%), UAS7 ≤6 (Week 10): 29 (70.7) n (%) | OR for rilzabrutinib vs. placebo, UAS7 = 0 (Week 10): 2.322 | OR for rilzabrutinib vs. placebo, UAS7 ≤6 (Week 10): 1.699 | RRD (%) for rilzabrutinib vs. placebo, UAS7 = 0 (Week 10): 10.9 % | RRD (%) for rilzabrutinib vs. placebo, UAS7 ≤6 (Week 10): 8.6 % | Responder n (%), UAS7 = 0 (Week 10): 9 (22.0) n (%) | Responder n (%), UAS7 ≤6 (Week 10): 12 (29.3) n (%) | Imputed non-responder n (%), UAS7 = 0 (Week 11): 9 (22.0) n (%) | Imputed non-responder n (%), UAS7 ≤6 (Week 11): 9 (22.0) n (%) | Non-responder n (%), UAS7 = 0 (Week 11): 35 (85.4) n (%)
